Measured values from patent publication US20260217708A1, “FUSED BENZAZEPINE DERIVATIVES FOR USE IN THE TREATMENT OF CANCER AND EPILEPSY” (UCB BIOPHARMA SRL, priority 2023, published 2026).

Assays:
system Xc^− [1] = target: T1, system Xc^− (Homo sapiens, UniProt Q9UPY5); assay: [^14C]L-Cystine uptake assay; format: cell-based; set-up: endogenous in cells; host or cells: H4 cells; conditions: H4 cells, sodium-free HEPES buffer, 0.5 μM L-[14C]Cystine and 4.5 μM L-Cystine, 1 hour at 37° C.; for IC50: read-out: pIC50 [^14C] L-Cystine uptake assay (converted)
T1 sequence (Q9UPY5 1-501): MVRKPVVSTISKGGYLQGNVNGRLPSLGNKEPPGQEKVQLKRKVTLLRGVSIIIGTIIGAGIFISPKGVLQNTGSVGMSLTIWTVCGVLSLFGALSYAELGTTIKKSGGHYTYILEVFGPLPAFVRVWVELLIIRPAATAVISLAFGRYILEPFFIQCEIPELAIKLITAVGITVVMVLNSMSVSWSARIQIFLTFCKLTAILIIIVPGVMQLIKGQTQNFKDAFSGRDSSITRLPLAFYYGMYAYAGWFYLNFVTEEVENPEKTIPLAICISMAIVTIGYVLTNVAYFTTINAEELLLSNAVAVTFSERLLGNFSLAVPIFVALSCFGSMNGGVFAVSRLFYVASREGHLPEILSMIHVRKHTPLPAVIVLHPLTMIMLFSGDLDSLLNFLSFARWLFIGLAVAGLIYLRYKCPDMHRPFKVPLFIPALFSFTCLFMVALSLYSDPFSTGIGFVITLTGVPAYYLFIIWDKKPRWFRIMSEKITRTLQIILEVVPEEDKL
T1 sequence (P08195 1-529 partner): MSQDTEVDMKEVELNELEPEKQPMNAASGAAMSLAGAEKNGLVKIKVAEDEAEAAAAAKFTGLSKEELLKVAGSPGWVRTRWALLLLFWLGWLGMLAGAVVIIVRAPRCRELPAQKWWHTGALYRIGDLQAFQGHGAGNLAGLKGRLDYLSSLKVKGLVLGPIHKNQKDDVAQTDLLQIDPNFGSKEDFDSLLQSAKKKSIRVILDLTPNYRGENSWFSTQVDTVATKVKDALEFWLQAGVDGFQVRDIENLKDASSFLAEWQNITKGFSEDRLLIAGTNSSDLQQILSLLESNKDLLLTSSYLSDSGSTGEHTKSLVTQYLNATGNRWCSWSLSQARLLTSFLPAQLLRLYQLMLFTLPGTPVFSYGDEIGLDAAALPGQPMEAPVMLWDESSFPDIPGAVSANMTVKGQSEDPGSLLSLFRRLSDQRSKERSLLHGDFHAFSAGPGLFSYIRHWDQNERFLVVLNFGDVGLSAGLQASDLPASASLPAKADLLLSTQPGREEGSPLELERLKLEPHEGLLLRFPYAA
Outline: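 H4 cells at 5×10^4 cells/well in sodium-free HEPES buffer were preincubated 15 min with compounds (1% DMSO). Uptake of 0.5 μM [14C]L-cystine plus 4.5 μM unlabelled L-cystine ran 1 hour at 37° C on scintillating plates. IC50 was set between 1% DMSO and 50 μM Erastin controls and expressed as pIC50.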

system Xc^− [2] = target: T1, system Xc^−; assay: Cystine-induced glutamate release assay; format: cell-based; set-up: endogenous in cells; host or cells: H4 cells; conditions: H4 cells, sodium-free HEPES buffer, 50 μM L-Cystine, 2 hours, Amplex Red glutamate readout; for IC50: read-out: pIC50 Cystine-induced glutamate release assay (converted)
Outline: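 H4 cells in sodium-free HEPES buffer (pH 7.4), 2 days after plating; glutamate release induced with 50 μM L-cystine plus compound (1% DMSO), 2 h at 37 °C. Supernatant glutamate measured by Amplex Red fluorescence; IC50/pIC50 derived between 1% DMSO and 50 μM erastin controls.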

Row | IC50 (system Xc^− [1]) [nM] | IC50 (system Xc^− [2]) [nM] | pIC50 [^14C] L-Cystine uptake assay (system Xc^− [1]) | pIC50 Cystine-induced glutamate release assay (system Xc^− [2]) | Compound
1 | 39.8 to 100 | 15.8 to 39.8 |  |  | Cc1cc2c(c(F)n1)-c1cccnc1C(CO)C(=O)N2CC(=O)Nc1ccc(C(F)F)cc1 (single isomer, unassigned) [#222, Enantiomer (10S) or (10R) of N-[4-(difluoromethyl)phenyl]-2-[3-fluoro-10-(hydroxymethyl)-5-methyl-9-oxo-4,8,12-triazatricyclo[9.4.0.0^2,7]pentadeca-1(15),2(7),3,5,11,13-hexaen-8-yl]acetamide]
2 | 15.8 to 39.8 | < 15.8 |  |  | Cc1cc2c(c(Cl)n1)-c1cccnc1C(F)C(=O)N2CC(=O)Nc1ccc(C(F)F)cc1 (single isomer, unassigned) [#223, Enantiomer (10R) or (10S) of 2-[3-chloro-10-fluoro-5-methyl-9-oxo-4,8,12-triazatricyclo[9.4.0.0^2,7]pentadeca-1(11),2(7),3,5,12,14-hexaen-8-yl]-N-[4-(difluoromethyl)phenyl]acetamide]
3 | < 15.8 | 15.8 to 39.8 |  |  | Cc1cc2c(c(Cl)n1)-c1cccnc1C(C)C(=O)N2CC(=O)Nc1ccc(Br)c(F)c1 (single isomer, unassigned) [#224, Enantiomer (10S) or (10R) of N-(4-bromo-3-fluoro-phenyl)-2-[3-chloro-5,10-dimethyl-9-oxo-4,8,12-triazatricyclo[9.4.0.0^2,7]pentadeca-1(15),2,4,6,11,13-hexaen-8-yl]acetamide]
4 | < 15.8 | < 15.8 |  |  | Cc1cc2c(c(Cl)n1)-c1cccnc1C(C)C(=O)N2CC(=O)Nc1ccc(C(F)(F)F)cc1F (single isomer, unassigned) [#225, Enantiomer (10S) or (10R) of N-[2-fluoro-4-(trifluoromethyl)phenyl]-2-[3-chloro-5,10-dimethyl-9-oxo-4,8,12-triazatricyclo[9.4.0.0^2,7]pentadeca-1(11),2(7),3,5,12,14-hexaen-8-yl]acetamide]
5 | 15.8 to 39.8 | < 15.8 |  |  | Cc1cc2c(c(Cl)n1)-c1cccnc1C(C)C(=O)N2CC(=O)Nc1cc(F)c(Cl)cc1F (single isomer, unassigned) [#226, Enantiomer (10S) or (10R) of N-(4-chloro-2,5-difluoro-phenyl)-2-[3-chloro-5,10-dimethyl-9-oxo-4,8,12-triazatricyclo[9.4.0.0^2,7]pentadeca-1(11),2(7),3,5,12,14-hexaen-8-yl]acetamide]
6 | 15.8 to 39.8 | < 15.8 |  |  | Cc1cc2c(c(Cl)n1)-c1cccnc1C(C)C(=O)N2CC(=O)Nc1ccc(Br)cc1F (single isomer, unassigned) [#227, Enantiomer (10S) or (10R) of N-(4-bromo-2-fluoro-phenyl)-2-[3-chloro-5,10-dimethyl-9-oxo-4,8,12-triazatricyclo[9.4.0.0^2,7]pentadeca-1(11),2(7),3,5,12,14-hexaen-8-yl]acetamide]
7 | < 15.8 | < 15.8 |  |  | Cc1cc2c(c(Cl)n1)-c1cccnc1C(C)C(=O)N2CC(=O)Nc1ccc(C(F)(F)F)nc1 (single isomer, unassigned) [#228, Enantiomer (10S) or (10R) of 2-[3-chloro-5,10-dimethyl-9-oxo-4,8,12-triazatricyclo[9.4.0.0^2,7]pentadeca-1(15),2,4,6,11,13-hexaen-8-yl]-N-[6-(trifluoromethyl)-3-pyridyl]acetamide]
8 | 39.8 to 100 | 15.8 to 39.8 |  |  | Cc1cc2c(c(Cl)n1)-c1cccnc1C(C)C(=O)N2CC(=O)Nc1ccc(C(F)(F)F)cn1 (single isomer, unassigned) [#229, Enantiomer (10S) or (10R) of 2-[3-chloro-5,10-dimethyl-9-oxo-4,8,12-triazatricyclo[9.4.0.0^2,7]pentadeca-1(15),2,4,6,11,13-hexaen-8-yl]-N-[5-(trifluoromethyl)-2-pyridyl]acetamide]
9 | 15.8 to 39.8 | 15.8 to 39.8 |  |  | Cc1cc2c(c(Cl)n1)-c1cccnc1C(C)C(=O)N2CC(=O)Nc1ccc(C(F)F)nc1 (single isomer, unassigned) [#230, Enantiomer (10R) or (10S) of 2-[3-chloro-5,10-dimethyl-9-oxo-4,8,12-triazatricyclo[9.4.0.0^2,7]pentadeca-1(11),2(7),3,5,12,14-hexaen-8-yl]-N-[6-(difluoromethyl)-3-pyridyl]acetamide]
10 | < 15.8 | < 15.8 |  |  | Cc1cc2c(c(F)n1)-c1cccnc1[C@@H](C)C(=O)N2CC(=O)Nc1ccc(C(F)F)c(F)c1 (single isomer, unassigned) [#235]
11 | 15.8 to 39.8 | 15.8 to 39.8 |  |  | Cc1cc2c(c(F)n1)-c1cccnc1[C@@H](C)C(=O)N2CC(=O)Nc1ccc(C(C)(F)F)c(F)c1 (single isomer, unassigned) [#236]
12 | 15.8 to 39.8 | 15.8 to 39.8 |  |  | Cc1cc2c(c(F)n1)-c1cccnc1[C@@H](C)C(=O)N2CC(=O)Nc1ccc2cnc(F)cc2c1 (single isomer, unassigned) [#239]
13 | 39.8 to 100 | 15.8 to 39.8 |  |  | Cc1cc2c(c(F)n1)-c1cccnc1[C@@H](C)C(=O)N2CC(=O)Nc1ccc2c(Cl)nccc2c1 (single isomer, unassigned) [#240]
14 |  |  | B (about 7.00 < pIC50 ≤ about 7.40) | C (about 7.40 < pIC50 ≤ about 7.80) | Cc1cc2c(cn1)-c1cccnc1C(C)C(=O)N2CC(=O)Nc1ccc(C(F)F)cc1 (single isomer, unassigned) [#250, Enantiomer (10S) or (10R) of N-[4-(difluoromethyl)phenyl]-2-[5,10-dimethyl-9-oxo-4,8,12-triazatricyclo[9.4.0.0^2,l]pentadeca-1(15),2,4,6,11,13-hexaen-8-yl]acetamide]
15 | < 15.8 | < 15.8 |  |  | Cc1cc2c(cn1)-c1cccnc1C(C)C(=O)N2CC(=O)Nc1ccc(Cl)c(F)c1 (single isomer, unassigned) [#251, N-(4-chloro-3-fluoro-phenyl)-2-[5,10-dimethyl-9-oxo-4,8,12-triazatricyclo[9.4.0.0^2,7]pentadeca-1(15),2,4,6,11,13-hexaen-8-yl]acetamide]
16 | 15.8 to 39.8 | < 15.8 |  |  | Cc1cc2c(cn1)-c1cccnc1C(C)C(=O)N2CC(=O)Nc1ccc(C(F)F)c(F)c1 (single isomer, unassigned) [#252, N-[4-(difluoromethyl)-3-fluoro-phenyl]-2-[5,10-dimethyl-9-oxo-4,8,12-triazatricyclo[9.4.0.0^2,7]pentadeca-1(15),2,4,6,11,13-hexaen-8-yl]acetamide]
17 | 39.8 to 100 | 39.8 to 100 |  |  | Cc1cc2c(cn1)-c1cccnc1C(C)C(=O)N2CC(=O)Nc1ccc(F)c(Cl)c1 (single isomer, unassigned) [#253, N-(3-chloro-4-fluoro-phenyl)-2-(5,10-dimethyl-9-oxo-4,8,12-triazatricyclo[9.4.0.0^2,7]pentadeca-1(11),2(7).3,5,12,14-hexaen-8-yl)acetamide]
18 | 39.8 to 100 | 39.8 to 100 |  |  | Cc1cc2c(c(F)n1)-c1ccnnc1C(C)C(=O)N2CC(=O)Nc1ccc(C(F)F)cc1 (single isomer, unassigned) [#257, N-[4-(difluoromethyl)phenyl]-2-[3-fluoro-5,10-dimethyl-9-oxo-4,8,12,13-tetrazatricyclo[9.4.0.0^2,7]pentadeca-1(15),2,4,6,11,13-hexaen-8-yl]acetamide]
19 | < 15.8 | < 15.8 |  |  | Cc1cc2c(c(Cl)n1)-c1ccnnc1C(C)C(=O)N2CC(=O)Nc1ccc(Cl)c(F)c1 (single isomer, unassigned) [#258, 2-[3-chloro-5,10-dimethyl-9-oxo-4,8,12,13-tetrazatricyclo[9.4.0.0^2,7]pentadeca-1(15),2,4,6,11,13-hexaen-8-yl]-N-(4-chloro-3-fluoro-phenyl)acetamide]
